Data set [1] has as its target T1, Free fatty acid receptor 3 (Homo sapiens) (UniProt O14843).
T1 sequence (whole entry): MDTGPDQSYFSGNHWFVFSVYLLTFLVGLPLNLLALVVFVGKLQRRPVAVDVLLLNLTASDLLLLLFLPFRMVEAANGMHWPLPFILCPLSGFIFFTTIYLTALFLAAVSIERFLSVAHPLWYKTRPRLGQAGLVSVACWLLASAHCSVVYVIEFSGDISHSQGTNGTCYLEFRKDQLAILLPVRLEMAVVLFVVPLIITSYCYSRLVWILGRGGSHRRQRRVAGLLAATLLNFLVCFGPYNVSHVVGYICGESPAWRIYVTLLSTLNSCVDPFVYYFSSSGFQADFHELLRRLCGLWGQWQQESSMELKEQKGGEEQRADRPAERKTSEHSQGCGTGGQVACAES
Conditions: 10 uM.

In data set [2] the target is T2, Glucagon-like peptide 2 receptor (Homo sapiens) (UniProt O95838).
T2 sequence (whole entry): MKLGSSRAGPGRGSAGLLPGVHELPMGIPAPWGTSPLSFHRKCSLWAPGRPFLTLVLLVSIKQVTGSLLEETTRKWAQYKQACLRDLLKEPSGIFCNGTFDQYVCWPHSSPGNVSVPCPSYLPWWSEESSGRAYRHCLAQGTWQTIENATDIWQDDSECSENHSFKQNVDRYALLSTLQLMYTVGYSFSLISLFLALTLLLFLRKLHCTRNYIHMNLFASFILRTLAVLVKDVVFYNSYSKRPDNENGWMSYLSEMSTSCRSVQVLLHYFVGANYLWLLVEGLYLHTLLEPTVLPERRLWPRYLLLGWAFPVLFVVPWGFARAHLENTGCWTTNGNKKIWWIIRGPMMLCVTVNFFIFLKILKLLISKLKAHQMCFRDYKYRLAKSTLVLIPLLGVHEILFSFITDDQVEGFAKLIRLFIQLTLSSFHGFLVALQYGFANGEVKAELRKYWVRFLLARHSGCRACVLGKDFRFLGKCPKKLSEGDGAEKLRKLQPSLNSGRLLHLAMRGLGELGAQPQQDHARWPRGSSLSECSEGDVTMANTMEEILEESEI
Conditions: 10 uM.
Description: Antagonist activity at GLP2R (unknown origin) at 10 uM by cAMP accumulation based assay relative to control

In a further data set the test system is Rattus norvegicus. The experiment in a line: Unbound clearance in Sprague-Dawley rat at 1 mg/kg, iv administered as single dose by LC-MS/MS analysis. To be noted: in vivo. It counts as ADME, organism-based.
Data set [3] has as its target Free fatty acid receptor 1 (Homo sapiens) (UniProt O14842). The data set can be described thus: Antagonist activity at FFA1R (unknown origin) at 10 uM by aequorin based assay relative to control. It is filed as functional.

Drawing on ChEMBL document CHEMBL4152373 (Bioorg Med Chem, 2018), this text covers inhibition and CL free for 1 compound.

Sequence of Free fatty acid receptor 1 (Homo sapiens) (O14842 whole entry): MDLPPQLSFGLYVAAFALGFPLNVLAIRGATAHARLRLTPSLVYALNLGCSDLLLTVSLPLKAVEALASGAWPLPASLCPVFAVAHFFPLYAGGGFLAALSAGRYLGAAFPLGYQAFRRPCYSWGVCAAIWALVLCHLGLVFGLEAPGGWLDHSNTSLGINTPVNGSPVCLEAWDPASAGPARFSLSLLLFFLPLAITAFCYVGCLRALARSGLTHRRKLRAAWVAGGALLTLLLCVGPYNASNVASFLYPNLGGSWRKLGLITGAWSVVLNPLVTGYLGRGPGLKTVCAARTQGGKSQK

For `COc1ccc(-c2ccccc2-c2csc(N(C(=O)[C@@H](CC(=O)O)CC3CCCC3)C3CC3)n2)cn1`, the inhibition in data set [1] is under 10%; in data set [2], under 10%; in data set [3], 13%. Besides, in the data set on Rattus norvegicus, the CL free worked out at 2617 mL/min/kg.
